We go through 51 compounds from patent publication US7202265B2, “Indolinone combinatorial libraries and related products and methods for the treatment of disease” (Sugen, Inc., priority 1997, dated 2007).

In the assay the test system is human MET. The assay can be described thus: MET biochemical kinase assay. On the set-up: concentration or dose not given beside the values. The source says:
(d) MET Biochemical Kinase Assay
A met biochemical kinase assay may be performed for met generally as described above for other kinases by substituting that or the other kinases. In particular, ELISA plates are coated with goat anti-rabbit Fc antibodies, which are used to capture commercially available (from Santa Cruz Biotechnology) rabbit polyclonal antibodies to the cytoplasmic domain of human MET. […] The chimeric receptors, or MET, from these lysates are captured on the antibody coated plates. After washing away extraneous proteins, test compounds are added and an in vitro kinase assay is performed by addition of an appropriate kinase buffer (containing ATP, divalent metal ions, etc.). Incorporation of phosphate into the captured receptors is detected with an anti-phosphotyrosine antibody conjugate with horse radish peroxidase using TMB as a substrate for calorimetric detection.
Regarding `CCOc1ccc(C=C2C(=O)Nc3ccc(I)cc32)cc1OC` [10719/B02], the “Met Kinase % Inhibition” value is given as 47.0%.

For `CC(C)(C)c1cc(C=C2C(=O)Nc3ccc(S(=O)(=O)Nc4ccc(C(F)(F)F)cc4)cc32)ccc1O` [10721/E09], the “Met Kinase % Inhibition” value came to 0.7%.

Consider `CC(C)(C)c1cc(C=C2C(=O)Nc3ccc(CCCl)cc32)cc(Br)c1O` [10721/G10], for which the “Met Kinase % Inhibition” value was determined as 12.0%.

Take `COc1ccc2[nH]cc(C=C3C(=O)Nc4ccc(CCCl)cc43)c2c1` [10731/G09]: the “Met Kinase % Inhibition” value is given as 4.4%.

On to `O=C1Nc2ccc(CCCl)cc2C1=Cc1cccc(Oc2ccccc2)c1` [10729/G06], for which the “Met Kinase % Inhibition” value is recorded as 26.0%.

For `CCOc1cccc(C=C2C(=O)Nc3ccc(S(=O)(=O)NC)cc32)c1O` [10734/D02], the “Met Kinase % Inhibition” value is given as 46.0%.

On to `O=C1Nc2ccc(S(=O)(=O)Nc3ccc(C(F)(F)F)cc3)cc2C1=Cc1c[nH]c(=O)[nH]c1=O` [10731/E08], for which the “Met Kinase % Inhibition” value was 59.0%.

`CNS(=O)(=O)c1ccc2c(c1)C(=Cc1cc(Cl)cc(Br)c1O)C(=O)N2` [10727/D04]: the “Met Kinase % Inhibition” value is recorded as 76.0%.

With `O=C1Nc2c(Br)cc(Br)cc2C1=Cc1cc(Cl)ccc1O` [10734/A04], the “Met Kinase % Inhibition” value was 68.0%.

In the case of `CCN(CC)c1ccc(C=C2C(=O)Nc3ccc(S(=O)(=O)NC)cc32)c(O)c1` [10734/D05], the “Met Kinase % Inhibition” value turned out to be 55.0%.

For the compound `COc1ccc(OC)c(C=C2C(=O)Nc3ccc(CCCl)cc32)c1` [10728/G02], the “Met Kinase % Inhibition” value is given as 7.1%.

On to `COc1cc(Br)cc(C=C2C(=O)Nc3ccc(CCCl)cc32)c1O` [10733/G08], for which the “Met Kinase % Inhibition” value was found to be 79.0%.

As to `N#Cc1cccc(C=C2C(=O)Nc3ccc(S(=O)(=O)Nc4ccc(C(F)(F)F)cc4)cc32)c1` [10727/E08], the “Met Kinase % Inhibition” value is given as 27.0%.

Consider `Cc1ccc(C=C2C(=O)Nc3ccc(S(=O)(=O)Nc4ccc(C(F)(F)F)cc4)cc32)o1` [10725/E04], for which the “Met Kinase % Inhibition” value was 59.0%.

In the case of `COC(=O)Cc1c(Cl)[nH]c(C=C2C(=O)Nc3ccc(CCCl)cc32)c1C(=O)OC` [10725/G09], the “Met Kinase % Inhibition” value worked out at 4.7%.

Turning to `COc1cc(OC)c(C=C2C(=O)Nc3ccc(S(=O)(=O)Nc4ccc(C(F)(F)F)cc4)cc32)c(OC)c1` [10719/E06], the “Met Kinase % Inhibition” value was −4.5%.

Turning to `O=C1Nc2ccc(CCCl)cc2C1=Cc1ccc(C(=O)O)cc1` [10722/G05], the “Met Kinase % Inhibition” value is 9.7%.

Consider `Cc1cc(C=C2C(=O)Nc3ccc(S(=O)(=O)N4CCOCC4)cc32)cc(C)c1OCc1ccccc1` [10733/F07], for which the “Met Kinase % Inhibition” value is −16.4%.

As to `O=C1Nc2ccc(CCCl)cc2C1=Cc1ccccc1Br` [10723/G07], the “Met Kinase % Inhibition” value worked out at 43.0%.

Turning to `O=C1Nc2ccc(CCCl)cc2C1=Cc1c[nH]c2ccccc12` [10717/G06], the “Met Kinase % Inhibition” value was found to be 34.0%.

Consider `O=C1Nc2ccc(S(=O)(=O)Nc3ccc(C(F)(F)F)cc3)cc2C1=Cc1c(F)cccc1C(F)(F)F` [10728/E09], for which the “Met Kinase % Inhibition” value was 40.0%.

For `O=C1Nc2ccc(S(=O)(=O)Nc3ccc(C(F)(F)F)cc3)cc2C1=Cc1ncc[nH]1` [10720/E11], the “Met Kinase % Inhibition” value is listed as −10.4%.

In the case of `O=C1Nc2ccc(CCCl)cc2C1=Cc1cccn1-c1ccc(Cl)cc1` [10724/G09], the “Met Kinase % Inhibition” value is given as −2.8%.

Turning to `Cc1c(Br)ccc2c1C(=Cc1ccco1)C(=O)N2` [10718/C10], the “Met Kinase % Inhibition” value is given as 4.4%.

As for `Cc1c(Br)ccc2c1C(=Cc1cc(C(C)(C)C)cc(C(C)(C)C)c1O)C(=O)N2` [10723/C11], the “Met Kinase % Inhibition” value worked out at 47.0%.

Consider `O=C1Nc2ccc(S(=O)(=O)Nc3ccc(C(F)(F)F)cc3)cc2C1=Cc1c[nH]cn1` [10725/E11], for which the “Met Kinase % Inhibition” value came to 9.6%.

On to `O=C1Nc2ccc(S(=O)(=O)N3CCOCC3)cc2C1=Cc1cc(Cl)cc(Br)c1O` [10727/F04], for which the “Met Kinase % Inhibition” value was 92.0%.

For `COc1ccc(C=C2C(=O)Nc3ccc(S(=O)(=O)N4CCOCC4)cc32)c(OC)c1OC` [10730/F02], the “Met Kinase % Inhibition” value is −6.2%.

Turning to `CNS(=O)(=O)c1ccc2c(c1)C(=Cc1ccc(F)cc1Cl)C(=O)N2` [10719/D09], the “Met Kinase % Inhibition” value stood at 13.0%.

For `O=C1Nc2ccc(S(=O)(=O)Nc3ccc(C(F)(F)F)cc3)cc2C1=Cc1ccc(N2CCCC2)cc1` [10729/E10], the “Met Kinase % Inhibition” value is 7.5%.

For the compound `COc1cccc(C=C2C(=O)Nc3ccc(CCCl)cc32)c1OC` [10727/G11], the “Met Kinase % Inhibition” value was −0.8%.

Consider `CC(C)c1ccc2occ(C=C3C(=O)Nc4ccc(I)cc43)c(=O)c2c1` [10731/B05], for which the “Met Kinase % Inhibition” value came out at 86.0%.

On to `CNS(=O)(=O)c1ccc2c(c1)C(=Cc1cc(C)c(C)o1)C(=O)N2` [10730/D11], for which the “Met Kinase % Inhibition” value came out at 9.7%.

`CNS(=O)(=O)c1ccc2c(c1)C(=Cc1cc(OC)ccc1O)C(=O)N2` [10720/D10]: the “Met Kinase % Inhibition” value is given as 51.0%.

`Cc1c(Br)ccc2c1C(=Cc1nn(C)cc1Cl)C(=O)N2` [10721/C03]: the “Met Kinase % Inhibition” value turned out to be 6.2%.

Consider `CN(C)c1ccc(C=C2C(=O)Nc3ccc(S(=O)(=O)Nc4ccc(C(F)(F)F)cc4)cc32)cc1` [10719/E08], for which the “Met Kinase % Inhibition” value was 80.0%.

For the compound `O=C1Nc2ccc(CCCl)cc2C1=Cc1cc2c([nH]1)CCCC2` [10721/G05], the “Met Kinase % Inhibition” value worked out at 8.6%.

On to `O=C1Nc2ccc(S(=O)(=O)Nc3ccc(C(F)(F)F)cc3)cc2C1=Cc1c(Br)cnn1-c1ccc(Cl)cc1` [10725/E10], for which the “Met Kinase % Inhibition” value was −4.7%.

On to `C=C(C)C1CC=C(C=C2C(=O)Nc3ccc(S(=O)(=O)N4CCOCC4)cc32)CC1` (stereo not drawn) [10731/F04], for which the “Met Kinase % Inhibition” value is listed as 17.0%.

For `O=C1Nc2ccc(CCCl)cc2C1=Cc1cccs1` [10717/G03], the “Met Kinase % Inhibition” value stood at 4.5%.

Regarding `O=C1Nc2ccc(I)cc2C1=Cc1cc(C(F)(F)F)ccc1F` [10728/B08], the “Met Kinase % Inhibition” value was determined as 77.0%.

On to `COc1c(C(C)C)cc(C=C2C(=O)Nc3ccc(Br)c(C)c32)cc1C(C)C` [10732/C03], for which the “Met Kinase % Inhibition” value is listed as 14.0%.

`CNS(=O)(=O)c1ccc2c(c1)C(=Cc1cc(Br)cc(Br)c1O)C(=O)N2` [10734/D07]: the “Met Kinase % Inhibition” value was 92.0%.

With `CC(C)(C)c1cc(C=C2C(=O)Nc3ccc(CCCl)cc32)ccc1O` [10721/G09], the “Met Kinase % Inhibition” value is recorded as 5.1%.

`COc1cccc(C=C2C(=O)Nc3ccc(S(=O)(=O)Nc4ccc(C(F)(F)F)cc4)cc32)c1OC` [10727/E11]: the “Met Kinase % Inhibition” value was −5.4%.

Turning to `O=C1Nc2ccc(S(=O)(=O)Nc3ccc(C(F)(F)F)cc3)cc2C1=Cc1cccn1-c1ccc(Cl)cc1` [10724/E09], the “Met Kinase % Inhibition” value is reported as 27.0%.

Turning to `O=C1Nc2ccc(CCCl)cc2C1=Cc1ccc(Cl)s1` [10721/G07], the “Met Kinase % Inhibition” value came out at 10.0%.

As to `CNS(=O)(=O)c1ccc2c(c1)C(=Cc1ccc(Cl)s1)C(=O)N2` [10721/D07], the “Met Kinase % Inhibition” value is listed as −6.8%.

With `COc1ccc(C=C2C(=O)Nc3ccc(Br)c(C)c32)cc1OC` [10720/C04], the “Met Kinase % Inhibition” value came to 29.0%.

In the case of `O=C1Nc2ccc(I)cc2C1=CC(c1cccs1)C(F)(F)F` (stereo not drawn) [10732/B02], the “Met Kinase % Inhibition” value worked out at 78.0%.

For `CC(C)(C)c1cc(C=C2C(=O)Nc3ccc(S(=O)(=O)Nc4ccc(C(F)(F)F)cc4)cc32)cc(C(C)(C)C)c1OCc1ccccc1` [10733/E05], the “Met Kinase % Inhibition” value was found to be 2.9%.
